± gives the standard deviation of the averaged measurements.
What was measured:
HS-PSS [1] = experiment: drug sensitivity score (DSS, CellTiter-Glo viability, 72 h) (DSS (dimensionless)); higher = more sensitive; extreme values may be limits of the assay
How it was run: (§1)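 MPNST cell lines and primary human Schwann cells (750–1000 cells per well) went into 384-well plates preprinted with each compound at five concentrations in 10-fold steps. Plates were incubated 72 h at 37 °C, 5% CO2. Viability was read as CellTiter-Glo ATP luminescence, scaled between vehicle and positive-control wells, with duplicates averaged where present. Percent inhibition is at the top concentration; drug sensitivity score and relative IC50 (censored at top concentration) come from four-parameter logistic fits.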

HS-Sch-2 [2] = experiment: as above
How it was run: as §1

[3] = system: HSC1 (primary human Schwann cells); experiment: as above
How it was run: as §1

[4] = system: HSC2 (primary human Schwann cells); experiment: as above
How it was run: as §1

S1507-2 [5] = experiment: as above
How it was run: as §1

S462 [6] = experiment: as above
How it was run: as §1

ST8814 [7] = experiment: as above
How it was run: as §1

STS26T [8] = experiment: as above
How it was run: as §1

YST-1 [9] = experiment: as above
How it was run: as §1

HS-PSS [10] = experiment: drug sensitivity score (DSS, CellTox-Green cytotoxicity, 72 h) (DSS (dimensionless)); higher = more cytotoxic; extreme values may be limits of the assay
How it was run: (§2)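 MPNST cell lines and primary human Schwann cells were incubated 72 h at 37 °C in 384-well plates holding five 10-fold compound dilutions. CellTox-Green was added before seeding at a final 1:1000 dilution and reported fluorescence from DNA released by disrupted cells. Signals were scaled to vehicle and positive-control wells, and cultures failing plate quality control were dropped. Drug sensitivity score and relative IC50 come from four-parameter logistic fits, with IC50 censored at the top concentration.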

[11] = system: HSC1 (primary human Schwann cells); experiment: as above
How it was run: as §2

[12] = system: HSC2 (primary human Schwann cells); experiment: as above
How it was run: as §2

S1507-2 [13] = experiment: as above
How it was run: as §2

ST8814 [14] = experiment: as above
How it was run: as §2

STS26T [15] = experiment: as above
How it was run: as §2

HS-PSS [16] = experiment: % inhibition of CellTiter-Glo viability at highest tested concentration (72 h), relative to DMSO and benzethonium chloride controls; higher = more inhibition
How it was run: as §1

HS-Sch-2 [17] = experiment: as above
How it was run: as §1

[18] = system: HSC1 (primary human Schwann cells); experiment: as above
How it was run: as §1

[19] = system: HSC2 (primary human Schwann cells); experiment: as above
How it was run: as §1

S1507-2 [20] = experiment: as above
How it was run: as §1

S462 [21] = experiment: as above
How it was run: as §1

ST8814 [22] = experiment: as above
How it was run: as §1

STS26T [23] = experiment: as above
How it was run: as §1

YST-1 [24] = experiment: as above
How it was run: as §1

Compound | drug sensitivity score (HS-PSS [1]) | drug sensitivity score (HS-Sch-2 [2]) | drug sensitivity score [3] | drug sensitivity score [4] | drug sensitivity score (S1507-2 [5]) | drug sensitivity score (S462 [6]) | drug sensitivity score (ST8814 [7]) | drug sensitivity score (STS26T [8]) | drug sensitivity score (YST-1 [9]) | drug sensitivity score (HS-PSS [10]) | drug sensitivity score [11] | drug sensitivity score [12] | drug sensitivity score (S1507-2 [13]) | drug sensitivity score (ST8814 [14]) | drug sensitivity score (STS26T [15]) | % inhibition (HS-PSS [16]) | % inhibition (HS-Sch-2 [17]) | % inhibition [18] | % inhibition [19] | % inhibition (S1507-2 [20]) | % inhibition (S462 [21]) | % inhibition (ST8814 [22]) | % inhibition (STS26T [23]) | % inhibition (YST-1 [24])
COC(=O)C[C@](O)(CCCC(C)(C)O)C(=O)O[C@@H]1C(OC)=C[C@]23CCCN2CCc2cc4c(cc2[C@H]13)OCO4 [Omacetaxine] (max concentration tested 10000 nM) | 23.1 | 26 | 25.4 | 26.6 | 25.33 ± 0.068 | 31.4 ± 0.81 | 25.2 | 27.9 | 36.4 | 1.24 | 8.49 | 11.7 | 13.4 ± 3 | 5 | 15 | 80.3% | 102% | 92% | 96.2% | 98.539 ± 0.044% | 99.121 ± 0.0091% | 88.6% | 98.6% | 99.5%
Nc1nc(Cl)nc2c1ncn2[C@@H]1O[C@H](CO)[C@@H](O)[C@@H]1F [Clofarabine] (max concentration tested 10000 nM) | 13 | 18.2 | 14.4 | 17.5 | 11 ± 1.9 | 17.2 ± 2.3 | 12.8 | 15.8 | 14.8 | 6.52 | 15.7 | 15.8 | 3.61 ± 1.3 | 8.58 | 6.47 | 76% | 82.1% | 79.4% | 85.7% | 88.7 ± 1.4% | 103 ± 1.1% | 98.8% | 87.7% | 83.9%
COc1cc(Nc2c(C#N)cnc3cc(OCCCN4CCN(C)CC4)c(OC)cc23)c(Cl)cc1Cl [Bosutinib] (max concentration tested 10000 nM) | 5.17 | 9.19 | 7.12 | 9.52 | 9.52 ± 0.072 | 9.09 ± 1.4 | 9.35 | 9.81 | 6.63 | 5.37 | 1.14 | 3.59 | 6.25 ± 1.3 | 7.01 | 5.46 | 99.8% | 100% | 80% | 86% | 96.4 ± 2% | 94.85 ± 0.58% | 96.5% | 95.4% | 100%
CN(C)CCOc1ccc(/C(=C(/CCCl)c2ccccc2)c2ccccc2)cc1 [Toremifene] (max concentration tested 10000 nM) | 2.31 | 1.63 | 1.48 | 3.28 | 1.26 ± 0.65 | 0.537 ± 0.16 | 1.19 | 0.998 | 0.84 | 0 | 0 | 0 | 1.36 ± 0.28 | 5.11 | 0.141 | 48.1% | 37.2% | 21.8% | 55.6% | 32.2 ± 11% | 22.3 ± 3% | 34.5% | 27.1% | 26.3%
CO[C@H]1C[C@@H]2CC[C@@H](C)[C@@](O)(O2)C(=O)C(=O)N2CCCC[C@H]2C(=O)O[C@H]([C@H](C)C[C@@H]2CC[C@@H](OP(C)(C)=O)[C@H](OC)C2)CC(=O)[C@H](C)/C=C(\C)[C@@H](O)[C@@H](OC)C(=O)[C@H](C)C[C@H](C)/C=C/C=C/C=C/1C [Ridaforolimus] (max concentration tested 100 nM) | 5.02 | 4.49 | 16.8 | 15.8 | 7.07 ± 0.28 | 8.13 ± 1.3 | 8.41 | 13.1 | 9.63 | 0 | 0 | 0 | 0 | 0 | 0 | 28.6% | 31% | 51.5% | 52.6% | 35.9 ± 0.46% | 40.4 ± 5.1% | 32.1% | 48.8% | 43.6%
CC(=O)O[C@H]1C(=O)[C@@]2(C)[C@H]([C@H](OC(=O)c3ccccc3)[C@]3(O)C[C@H](OC(=O)[C@H](O)[C@@H](NC(=O)c4ccccc4)c4ccccc4)C(C)=C1C3(C)C)[C@]1(OC(C)=O)CO[C@@H]1C[C@@H]2O [Paclitaxel] (max concentration tested 1000 nM) | 12.2 | 23.3 | 18 | 19.1 | 17.3 ± 0.6 | 28.8 ± 1.5 | 18.3 | 28.1 | 23.7 | 0 | 17.8 | 20.3 | 15.9 ± 1.1 | 18.6 | 33.8 | 45.7% | 93% | 70.6% | 73.9% | 84.6 ± 1% | 99.3 ± 1.5% | 94.5% | 99.6% | 81.6%
C=C1C[C@@H]2[C@H](CC[C@]3(C)C(=O)CC[C@@H]23)[C@@]2(C)C=CC(=O)C=C12 [Exemestane] (max concentration tested 10000 nM) | 1.87 | 0.78 | 0 | 0 | 0.225 ± 0.26 | 0.804 ± 0.28 | 0 | 0 | 0 | 0 | 0 | 0 | 0 | 0 | 0 | 26.7% | 22.9% | 3.19% | 6.18% | 12 ± 1.6% | 22.1 ± 2% | 5.32% | 9.39% | -11.7%
CC(=O)Nc1cccc(-n2c(=O)n(C3CC3)c(=O)c3c(Nc4ccc(I)cc4F)n(C)c(=O)c(C)c32)c1 [Trametinib] (max concentration tested 250 nM) | 5.07 | 4.27 | 9.86 | 8.12 | 10.4 ± 0.064 | 13.48 ± 0.13 | 12.8 | 7.88 | 0 | 0.89 | 0 | 0.138 | 4.3 ± 0.49 | 6.34 | 0 | 46.4% | 53.5% | 64.5% | 66.4% | 76.9 ± 1.3% | 85.67 ± 0.21% | 96.7% | 48.4% | 4.55%
CS(=O)(=O)OCCCCOS(C)(=O)=O [Busulfan] (max concentration tested 100000 nM) | 0 | 0.72 | 0 | 0 | 0 | 0 | 0 | 0 | 2.32 | 0 | 0 | 0 | 0 | 0 | 0 | 0.44% | 17.2% | 8.68% | -3.16% | -7.23 ± 18% | -16.5 ± 19% | 0.917% | 3.36% | 22.8%
CCN(CC)CCOc1ccc(/C(=C(/Cl)c2ccccc2)c2ccccc2)cc1 [Clomifene] (max concentration tested 10000 nM) | 6.39 | 5.21 | 2.36 | 6.36 | 6.57 ± 0.14 | 5.36 ± 0.27 | 6.53 | 6.27 | 1.77 | 5.71 | 0 | 7.92 | 4.48 ± 1.9 | 6.68 | 6.15 | 87.8% | 98.5% | 25.9% | 91.5% | 95.46 ± 0.71% | 77.6 ± 2.6% | 96.9% | 92.4% | 44.2%
CC1(C)CCC(c2ccc(Cl)cc2)=C(CN2CCN(c3ccc(C(=O)NS(=O)(=O)c4ccc(N[C@H](CCN5CCOCC5)CSc5ccccc5)c(S(=O)(=O)C(F)(F)F)c4)cc3)CC2)C1 [Navitoclax] (max concentration tested 10000 nM) | 0 | 3.94 | 2.32 | 5.16 | 6.14 ± 0.43 | 0.978 ± 0.8 | 0.561 | 0.0007 | 4.22 | 0 | 5.42 | 11.8 | 16 ± 1.1 | 5.52 | 3.15 | 3.02% | 32.7% | 23.8% | 53.1% | 47.8 ± 0.54% | 20.7 ± 5.9% | 24.4% | 11.3% | 34.2%
COc1cc(F)c(F)c(Nc2ccc(I)cc2F)c1NS(=O)(=O)C1(C[C@H](O)CO)CC1 [Refametinib] (max concentration tested 10000 nM) | 5.39 | 6.81 | 8.11 | 10.5 | 13.8 ± 1.3 | 14.9 ± 1.8 | 14.8 | 8.43 | 0.24 | 0.98 | 0 | 0.276 | 11.1 ± 3.6 | 8.62 | 1.17 | 63.2% | 75.5% | 69.2% | 69% | 86.7 ± 4.6% | 94.83 ± 0.55% | 99.1% | 53% | 17.5%
